Legend:
[1] = system: PA01(wspF)::araC-PBAD-bifA+; assay: biofilm formation with arabinose inducible bifA expression; assay type: cell-based, Pseudomonas aeruginosa; conditions: 6 to 100 μM with 0.05% or 0.2% arabinose, 18 hours, FIG. 6C
Method: Using a 96 well microtiter platform, overnight cultures of the strains were diluted 200 fold into 100 uL ABTrace media aliquots (Pamp and Tolker-Nielsen, 2007) supplemented with 0.2% glucose, 0.5% casa amino acids, 1 μM FeCl3, 1% DMSO and varying concentrations of arabinose and H6-335-P1.
The resulting microtiter plates were sealed with air permeable lids and biofilm cultures were grown at 37° C. on a rotary shaker (280 RPM) for 18 hours, after which the culture supernatants were discarded and biofilm present in the wells were quantified by crystal violet staining (Groizeleau et al., 2016).
Finally, biofilm prevailing following treatment with varying concentrations of arabinose and H6-335-P1 were plotted. The amounts of supplemented arabinose (0% A, 0.05% A or 0.2% A) and H6-335-P1 (100 μM, 50 μM, 25 μM, 12 μM, 6 μM or 0 μM) are indicated below the X-axis of FIG. 6C. Numbers above the bars in FIG. 6 represents the crystal violet measurements.

[2] = system: P. aeruginosa (PA01) tagged with GFP biofilm; assay: flow-chamber biofilm, confocal laser scanning microscopy; assay type: cell-based, Pseudomonas aeruginosa
Method: Biofilms were grown at 37° C. in continuous-culture, once-through, three-channel, flow-chambers (individual channel dimensions of 1×4×40 mm) perfused with sterile AB trace minimal medium (Pamp and Tolker-Nielsen, 2007), supplemented with 0.3 mM glucose and 0.025% (v/v) DMSO. P. aeruginosa (PA01) tagged with GFP at a neutral chromosomal locus was used for the experiments. After a static attachment phase of 1 h, the flow of medium was turned on and the biofilms were allowed to establish for 48 h in the absence (untreated) or presence (treated) of medium supplemented with 25 μM of H6-335-P1. Confocal laser scanning microscopy was used to image the biofilms after 24 h and 48 h (FIG. 5A).
Confocal laser scanning microscopy was used to image the biofilm immediately before H6-335-P1 was added, and after 4 h of H6-335-P1 treatment. Simulated fluorescence projections in 3D were generated from the image stacks using the IMARIS software package (Bitplane, Oxford Imaging, UK) and the resulting images were processed for publication using Photoshop (Adobe, USA).

N=C1NN=C(N)/C1=N/Nc1ccccc1F [H6-335-P1, 4-[(2-fluorophenyl) hydrazinylidene]pyrazole-3,5-diamine]
inhibition of biofilm formation in arabinose stimulated (bifA induced) cultures [1]: synergistic inhibitory effect on biofilm formation
prevention of biofilm formation in flow-through cells ([2]; 25 μM in the growth medium, 48 h, FIG. 5A): significantly prevented biofilm formation
biofilm biomass left behind ([2]; 25 μM, 48 h old biofilm, after four hours of exposure, FIG. 5B): 10%

Source: patent publication US20230321043A1, “COMPOUNDS HAVING PSEUDOMONAS ANTI-BIOFILM PROPERTIES” (Københavns Universitet, priority 2020, published 2023)
